Data taken from patent US8354569B2, “Plant acyltransferases specific for long-chained, multiply unsaturated fatty acids” (University of Bristol, priority 2003, dated 2013).

Experiments:
Thraustochytrium LPAAT = test: Acyl-CoA specificity of Thraustochytrium LPAAT expressed as GST fusion protein in E. coli; assay type: biochemical; settings: 0.4 μg soluble protein fraction, 30 μM 1-oleoyl[U-14C]glycerol-3-phosphate, increasing thioester concentrations
Source text: The PCR product was transferred into the vector pDONOR221 by Gateway reaction (BP reaction; Invitrogen) following the manufacturer's instructions, and the sequence was verified by sequencing. In a next step, the ThLPAAT sequence was then transferred into the vector pDES15 by the LR reaction and employed for expression in E. coli BL21 cells. The ThLPAAT sequence was attached to the open reading frame of the glutathione-S transferase (GST) encoded in the plasmid, in accordance with the manufacturer's instructions. This gave rise to a fusion protein of GST and ThLPAAT.
Expressed protein was detected after expression under standard conditions in E. coli (FIG. 21A) and purified via a glutathione column.
The enzyme assays were determined using 0.4 μg of soluble protein fraction in the presence of 100 mM Tricine-NaOH (pH 8.2), 30 μM 1-oleoyl[U-^14C]glycerol-3-phosphate and increasing concentrations of the thioesters detailed.

Shewanella LPAAT = test: Functional expression of Shewanella LPAAT in E. coli, enzyme assays; assay type: biochemical, Shewanella hanedai; settings: expressed at 10° C. in E. coli BL21, with or without His-tag; 30 μM thioester
Source text: To clone an LPAAT gene from the prokaryotic organism Shewanella, the genomic DNA from Shewanella hanedai was isolated, partially digested with Sau3a and ligated into the vector pUC18. This genomic library was screened for LPAAT genes by a PCR using different primer combinations. This method has made it possible to identify a 1486 by clone whose open reading frame codes for a 25.2 kDa LPAAT protein. The ShLPAAT sequence was introduced into the vector pQE70 (Qiagen) in accordance with the manufacturer's instructions. The resulting plasmids pQE70-Sh and pQE70-ShHis and the blank vector pQE70 were transformed into E. coli BL21 cells and expressed at 10° C. (FIG. 22A). Active protein was obtained at this temperature only (FIG. 22B). The membrane fractions were used for this purpose in the further experiments. […] The high incorporation rate with regard to PUFA acyl-CoA residues is required for the use for the production of PUFA.
The assays were carried out with extracts (1 μg) from E. coli comprising the blank vector (pQE70) or a Shewanella construct without (pQE-Sh) or with His-Tag sequence at the 3′ end (pQE-ShHis) in the presence of 30 μM 1-oleoyl[U-14C]glycerol-3-phosphate and 30 μM of the detailed thioesters.

For `CC/C=C\C/C=C\C/C=C\C/C=C\C/C=C\C/C=C\CCC(=O)SCCNC(=O)CCNC(=O)[C@H](O)C(C)(C)COP(=O)(O)OP(=O)(O)OC[C@H]1O[C@@H](n2cnc3c(N)ncnc32)[C@H](O)[C@@H]1OP(=O)(O)O` [DHA-CoA], which “LPAAT activity of the purified GST fusion protein by acyl-CoA” value (Thraustochytrium LPAAT) is on record?
The value was “highest activity”.

And the “Incorporation activity of the membrane fraction” value (Shewanella LPAAT)?
Its value is “high level of activity”.
